Assay results as given in US20170204123A1, “Gold (I)-Phosphine Compounds as Anti-Bacterial Agents” (Auspherix Limited, priority 2014, published 2017).

These compounds were tested on chinese hamster ovary cells (CHO) (assay: CHO toxicity assay (CCK-8 cell viability)). Settings: 50% growth inhibition vs untreated control, 24 hours.
Type: cell-based
Experimental: Cell counting kit-8 (Sigma, CCK-8) assays were performed to assess the effect of compounds on cell viability. The assay is based on the reduction of a water-soluble tetrazolium salt (WST-8) by cellular dehydrogenases to a formazan dye which can be detected spectroscopically. 96-well plates were seeded with chinese hamster ovary cells (CHO) cells at 7×10^3 cells per well in Dulbecco's modified Eagle's medium nutrient mixture F-12 Ham (containing 15 mM HEPES, NaHCO3, pyridoxine and L-glutamine) supplemented with 10% fetal bovine serum (FBS). The following day serial dilutions of compounds (dissolved and diluted in DMSO) were added to the cells in duplicates. Control included an ‘untreated’ control where cells were grown in the presence of 1% DMSO and a medium only control (plus 1% DMSO). After 24 hours CCK-8 reagent (10 μl) was added to each well and cell viability was assessed by measuring the absorbance at a wavelength of 450 nm after 2.5-3 hours. Only living cells can reduce the tetrazolium salts into coloured formazan products. Results were expressed as 50% growth inhibition (TD50) values compared to ‘untreated’ control.
The therapeutic index was calculated as the ratio of the dose that produces growth inhibition in 50% of CHO cells divided by the dose where 50% of S. aureus growth is inhibited.

Structure (SMILES) | CHO cell TD 50 [µg/mL]
CC[P](CC)(CC)=[Au][S]C1CCOCC1 [Compound 1] | 0.5
CC[P](CC)(CC)=[Au][S]C1CCN(C(=O)OC(C)(C)C)CC1 [Compound 2] | 0.7
CC[P](CC)(CC)=[Au][S]c1ncccn1 [Compound 3] | 0.6
CC[P](CC)(CC)=[Au][S]c1cccnn1 [Compound 4] | 1.4
CC[P](CC)(CC)=[Au][S]c1nc2ccccc2[nH]1 [Compound 5] | 1.5
CC[P](CC)(CC)=[Au][S][C@H]1CC[C@H](O)CC1 [Compound 6] | 1.5
CC[P](CC)(CC)=[Au][S]C[C@H](NC(C)=O)C(=O)OC [Compound 7] | 2.6
CC[P](CC)(CC)=[Au][S]c1nc2ncccc2o1 [Compound 8] | 1.6
C[P](=[Au][S]c1nc2ccccc2[nH]1)(c1ccccc1)c1ccccc1 [Compound 9] | 2.6
COC(=O)[C@H](C[S][Au]=[P](C)(c1ccccc1)c1ccccc1)NC(C)=O [Compound 10] | 1.2
C[P](=[Au][S]c1nc2ncccc2o1)(c1ccccc1)c1ccccc1 [Compound 11] | 2.0
CC[P](CC)(CC)=[Au][Se]C[C@H](NC(C)=O)C(=O)OC [Compound 12] | 6.5

Each compound was assayed on human hepatocyte cell line (HepG2) (assay: HepG2 cell inhibition assay (CCK-8 cell viability)). Settings: 50% growth inhibition vs untreated control, 24 hours.
Type: cell-based
Experimental: HepG2 Cell Inhibition Assay
Cell counting kit-8 (Sigma, CCK-8) assays were performed to assess the effect of compounds on cell viability. The assay is based on the reduction of a water-soluble tetrazolium salt (WST-8) by cellular dehydrogenases to a formazan dye which can be detected spectroscopically. 96-well plates were seeded with the human hepatocyte cell line (HepG2) at approximately 8×10^3 cells per well in Minimum Essential Medium Eagle (EMEM) with Earle's salts and sodium bicarbonate supplemented with 10% heat-inactivated foetal bovine serum 2 mM glutamine and 1% non-essential amino acids (NEAA). The following day serial dilutions of compounds (dissolved and diluted in DMSO) were added to the cells in duplicates. Control included an ‘untreated’ control where cells were grown in the presence of 1% DMSO and a medium only control (plus 1% DMSO). After 24 hours CCK-8 reagent (10 μl) was added to each well and cell viability was assessed by measuring the absorbance at a wavelength of 450 nm after 2-3 h hours. Only living cells can reduce the tetrazolium salts into coloured formazan products. Results were expressed as 50% growth inhibition (TD50) values compared to ‘untreated’ control. The therapeutic index was calculated as the ratio of the dose that produces growth inhibition in 50% of HepG2 cells divided by the dose where 50% of S. aureus growth is inhibited.

Structure (SMILES) | HepG2 cell TD50 [µg/mL]
C[P](C)(=[Au][S]c1nc2ccccc2[nH]1)c1ccccc1 [Compound 13] | 8.5
C[P](C)(=[Au][S]c1nc2ncccc2o1)c1ccccc1 [Compound 14] | 9
COC(=O)[C@H](C[S][Au]=[P](C)(C)c1ccccc1)NC(C)=O [Compound 15] | 6
CC[P](CC)(CC)=[Au][S]C[C@H](NC(C)=O)C(N)=O [Compound 16] | 9
CC(C)[P](=[Au][S]c1nc2ccccc2[nH]1)(C(C)C)C(C)C [Compound 20] | 6
COC(=O)[C@H](C[Se][Au]=[P](C)(c1ccccc1)c1ccccc1)NC(C)=O [Compound 22] | 10
COC(=O)[C@H](C[Se][Au]=[P](C(C)C)(C(C)C)C(C)C)NC(C)=O [Compound 23] | 12
